Where two headings read alike, the source gives them in different places.
Assays:
[1] = test system: municipal activated sludge; experiment: Laboratory screening test for growth uncoupling by oxygen consumption pattern analysis (Oxitop BOD system); settings: test biocides at 1, 2.5, 5, 10 and 25 mg/l; 2,4-dinitrophenol at 20 mg/l; 7 days at 20° C.
Description: A laboratory screening test was developed to determine the impact of chemical compounds on respiration parameters through an oxygen consumption pattern analysis using a model based on published work by Monod and Pirt^1. Growth uncoupling is characterised by an increase in oxygen consumption during bacterial growth in a synthetic growth medium. 1. Monod J. 1950, Ann Inst Pasteur, “La Technique de Culture Continue, Theorie et Applications”, 79:390-410. Monod J. 1942, “Recherches sur la Croissance des Cultures Bactériennes”. Paris Herman p. 210. Pirt S J. (1965) “The Maintenance Energy of Bacteria In Growing Cultures”. Proceedings of the Royal Society of London B 163, 224-231. “Principles of Water Quality Management”. Ed: W. W. Eckenfelder, Jr. CBI Publishing Company, Inc USA. […]
For the evaluation of proposed water-soluble biocides, the oxygen consumption kinetics are measured and, a process of computer iteration optimises the equation coefficients optimised to fit the oxygen consumption curve.
From the optimised coefficients, the degree of bacterial uncoupling can be calculated. […]
Three conventional water treatment biocides were evaluated as bacterial water-soluble biocides. […]
Based on the liquid sludge, 2,4-dinitrophenol was dosed at 20 mg/l, this being the known level at which significant uncoupling would result. The test biocides were each evaluated at 1, 2.5, 5, 10 and 25 mg/l. […]

sludge microorganisms [2] = settings: for Growth Yield / Specific Activity / Growth Yield Reduction: flash mixing, 52 days; for Growth Yield Reduction: vs untreated control
Description: A series of semi-continuous chemostat reactors was constructed to simulate wastewater treatment processes.
The central part of the equipment is the biological chemostat reactor 1. The reactor vessel 2 is made of glass, with an internal volume of 10 liters and is fitted with pH 3 and dissolved oxygen 4 sensors and an air sparge 5. This contains the sludge, which is, essentially, a mass of typical wastewater treatment microorganisms. The reactor operates at an ambient temperature (approximately 20° C.).
Simulated wastewater 13 is contained in a separate vessel 6 and maintained at 4° C. to prevent microbial spoilage. It is transferred into the reactor via a supply line 7 and a peristaltic pump 8.
A recirculating line 9 is provided on the reactor comprising a length of flexible silicone tubing and a peristaltic pump 10. The peristaltic pump extracts the sludge from the reactor into the recirculation line. The candidate water-soluble biocide is introduced into this line 9 through a needle 11, which is fed by a syringe pump 12. Using this system it is possible to achieve “flash mixing” which ensures rapid contact of the water-soluble biocide with the sludge microorganisms. The internal diameter of the recirculating line was 8 mm and the flow velocity was 0.5 meters per second, which gave a contact time, between candidate water-soluble biocide and sludge of 3 seconds before it re-entered the reactor.
Treated effluent 17 is removed from the reactor into a collecting vessel 16 via an outlet line 15.
The reactor was charged with sludge obtained from the Municipal wastewater treatment works at Courly-Lyon, in France. This sludge provided the “seed” to start the process off. The reactor was then filled, to the 5 liter mark, with simulated wastewater, adjusted to approximately pH 7.5, and aeration was commenced.
Each weekday (i.e. 5 times per week), 13.3% of the bioreactor contents were withdrawn to maintain the equilibrium. This ensured a sludge age in the region of 7.5 days.
Also, each weekday, after the adjustments described in the preceding paragraph, candidate water-soluble biocide (as a dilute solution) was injected into the system via the flash mixing recirculating line. The dilute solution was prepared by dissolving 10 grams of sodium hydrogen carbonate in approximately 900 ml of deionised water then adding 5 grams of candidate water-soluble biocide and mixing well. The mixture was then made up to 1 liter with deionised water. The appropriate volume of this dilute solution was injected to achieve the required dose level.
The experiment was conducted for 52 days before decommissioning the system.
Compound X was evaluated in the test. This compound is a 75% aqueous solution of tetrakis(hydroxymethyl)phosphonium sulphate (THPS). Two concentrations were evaluated: 2 and 4 milligrams per liter per day.

sludge microorganisms [3] = settings: 4 mg/l/day, pre-dilution, 52 days
Description: The equipment used in this test sequence was identical to that used for example 1 except that the reactor was not fitted with a recirculating line for flash mixing.
The procedure was identical to that used for example 1 except that the method of dosing Compound X was different. In this case, 5 grams of Compound X was mixed into a solution containing 5 grams of sodium hydrogen carbonate in 1 liter of deionised water. 4.0 ml of this solution was added to 500 ml of clarified wastewater which had been extracted from the bioreactor. The treated clarified wastewater was then returned to the bioreactor and normal operation of the bioreactor was resumed. The final concentration of Compound X in the bioreactor therefore equates to 4 mg per liter. This procedure was conducted daily, 5 times per week.
The experiment was conducted in parallel with example 1, i.e. for 52 days before decommissioning the system.
A Compound X concentration of 4 milligrams per liter per day was used.

Compound | level of uncoupling (percentage uncoupling, FIG. 4) [1] | Growth Yield (sludge microorganisms [2]; 2 mg/l/day) | Specific Activity (sludge microorganisms [2]; 2 mg/l/day) | Growth Yield Reduction (sludge microorganisms [2]; 2 mg/l/day) | Growth Yield (sludge microorganisms [2]; 4 mg/l/day) | Specific Activity (sludge microorganisms [2]; 4 mg/l/day) | Growth Yield Reduction (sludge microorganisms [2]; 4 mg/l/day) | sludge growth (sludge microorganisms [2]; flash treatment, low dose levels) | concentration of protozoans and other higher organisms in the sludge (sludge microorganisms [2]; treated sludge relative to untreated) | filamentous bacteria in the sludge (sludge microorganisms [2]; treated systems vs untreated control) | Growth Yield (sludge microorganisms [3]) | Specific Activity (sludge microorganisms [3]) | Growth Yield Reduction (sludge microorganisms [3]; vs untreated control)
CCCCCCCCCCCC[N+](C)(C)C.[Cl-] [C, Dodecyltrimethylammonium chloride] | greater levels of uncoupling at significantly lower dose levels than the conventional water-soluble biocide, 2,4-dinitrophenol |  |  |  |  |  |  |  |  |  |  |  | 
tetrakis(hydroxymethyl)phosphonium sulphate [Compound X] |  | 0.202 g MLSS/g COD | 0.582 g COD/g MLSS.d | 27.7% | 0.167 g MLSS/g COD | 0.772 g COD/g MLSS.d | 37.6% | significantly reducing sludge growth | significantly higher concentration | substantially absent | 0.201 g MLSS/g COD | 0.636 g COD/g MLSS.d | 26.4%

— patent publication US7780859B2, “Uncoupling agents” (Rhodia Operations, priority 2003, dated 2010)
